Laboratory results reported in patent US5627203A, “Tricyclic oxime ethers” (Adir et Compagnie, priority 1994, dated 1997).

How the values were obtained:
5-HT1A receptors = target: T1, 5-HT1A receptors (Rattus norvegicus, UniProt P19327); assay: Displacement of 8-OH-DPAT at 5-HT1A receptors; type: binding; conditions: rat hippocampus homogenates
T1 construct: rat hippocampus homogenates; from tissue; host or cells: rat hippocampus
T1 sequence (P19327 1-422): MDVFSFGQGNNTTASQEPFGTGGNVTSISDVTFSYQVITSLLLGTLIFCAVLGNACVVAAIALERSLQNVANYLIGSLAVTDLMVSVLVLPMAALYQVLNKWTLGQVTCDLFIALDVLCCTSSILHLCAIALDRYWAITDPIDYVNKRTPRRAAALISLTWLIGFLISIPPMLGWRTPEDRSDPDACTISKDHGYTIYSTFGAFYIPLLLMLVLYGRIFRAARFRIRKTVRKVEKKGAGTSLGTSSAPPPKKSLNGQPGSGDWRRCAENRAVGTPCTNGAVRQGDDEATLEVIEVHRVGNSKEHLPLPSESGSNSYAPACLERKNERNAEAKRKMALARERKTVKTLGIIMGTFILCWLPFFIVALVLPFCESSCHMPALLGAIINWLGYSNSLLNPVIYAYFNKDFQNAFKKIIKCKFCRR
Description: (§1) A-2: Study of the binding of the compounds of the invention to the serotonin reuptake site as well as to 5-HT1, 5-HT1A, 5-HT1B, 5-HT1D, 5-HT2, 5-HT2C, 5-HT4 serotoninergic receptors.
(§2) The binding of the compounds of the invention is measured in accordance with conventional methods.
for 5-HT1A receptors, by the displacement of 8-OH-DPAT in rat hippocampus homogenates, […]

5-HT1B receptors = target: T2, 5-HT1B receptors (Rattus norvegicus, UniProt P28564); assay: Displacement of 5-hydroxytryptamine at 5-HT1B receptors; type: binding; conditions: rat cortex, striatum, and globus pallidus homogenates
T2 construct: rat cortex, striatum, and globus pallidus homogenates; from tissue; host or cells: rat cortex, striatum and globus pallidus
T2 sequence (P28564 whole entry): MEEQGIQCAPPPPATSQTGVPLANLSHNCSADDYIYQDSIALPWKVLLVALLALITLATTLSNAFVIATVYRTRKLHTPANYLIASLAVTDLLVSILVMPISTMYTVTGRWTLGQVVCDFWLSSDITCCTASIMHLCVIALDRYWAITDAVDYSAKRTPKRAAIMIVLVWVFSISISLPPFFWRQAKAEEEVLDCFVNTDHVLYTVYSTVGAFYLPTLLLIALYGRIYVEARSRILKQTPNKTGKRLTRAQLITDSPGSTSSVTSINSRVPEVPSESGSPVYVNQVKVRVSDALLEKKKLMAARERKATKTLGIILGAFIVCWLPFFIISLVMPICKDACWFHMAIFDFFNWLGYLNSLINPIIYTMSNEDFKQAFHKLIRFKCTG
Description: as §1, §2
for 5-HT1B receptors, by the displacement of 5-hydroxytryptamine in rat cortex, striatum, and globus pallidus homogenates, […]

5-HT2C receptors = target: T3, 5-HT2C receptors (Rattus norvegicus, UniProt P08909); assay: Displacement of N-methylmesulergine at 5-HT2C receptors; type: binding; conditions: rat frontal cortex and hippocampus homogenates
T3 construct: rat frontal cortex and hippocampus homogenates; from tissue; host or cells: rat frontal cortex and hippocampus
T3 sequence (P08909 33-460): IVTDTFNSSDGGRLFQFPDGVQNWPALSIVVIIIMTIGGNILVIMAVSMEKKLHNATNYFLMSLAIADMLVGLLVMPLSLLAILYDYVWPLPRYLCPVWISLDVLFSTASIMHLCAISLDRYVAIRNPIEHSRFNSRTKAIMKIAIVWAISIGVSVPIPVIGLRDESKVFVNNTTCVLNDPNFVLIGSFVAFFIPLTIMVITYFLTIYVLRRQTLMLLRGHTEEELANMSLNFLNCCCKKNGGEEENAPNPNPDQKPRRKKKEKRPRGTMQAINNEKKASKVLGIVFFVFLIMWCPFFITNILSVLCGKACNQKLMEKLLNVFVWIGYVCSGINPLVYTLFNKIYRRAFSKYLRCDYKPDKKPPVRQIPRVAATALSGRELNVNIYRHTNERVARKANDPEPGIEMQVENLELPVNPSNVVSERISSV
Description: as §1, §2
for 5-HT2C receptors, by the displacement of N-methylmesulergine in rat frontal cortex and hippocampus homogenates, […]

5-HT2 receptors = target: T4, 5-HT2 receptors (Rattus norvegicus, UniProt P14842); assay: Displacement of aminoiodoketaneserine at 5-HT2 receptors; type: binding; conditions: rat frontal cortex homogenates
T4 construct: rat frontal cortex homogenates; from tissue; host or cells: rat frontal cortex
T4 sequence (P14842 whole entry): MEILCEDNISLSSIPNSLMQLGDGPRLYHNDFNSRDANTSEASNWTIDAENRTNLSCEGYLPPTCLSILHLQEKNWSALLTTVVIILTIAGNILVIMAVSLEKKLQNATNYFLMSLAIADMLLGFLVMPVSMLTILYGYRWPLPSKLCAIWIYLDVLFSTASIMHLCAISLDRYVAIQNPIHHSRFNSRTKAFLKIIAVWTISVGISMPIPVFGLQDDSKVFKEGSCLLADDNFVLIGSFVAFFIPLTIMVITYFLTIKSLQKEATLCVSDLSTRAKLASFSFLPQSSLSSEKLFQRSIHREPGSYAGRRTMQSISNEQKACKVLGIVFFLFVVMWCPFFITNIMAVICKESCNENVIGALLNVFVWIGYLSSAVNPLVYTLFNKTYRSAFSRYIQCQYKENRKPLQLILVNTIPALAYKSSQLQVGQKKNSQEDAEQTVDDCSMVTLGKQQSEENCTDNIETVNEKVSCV
Description: as §1, §2
for 5-HT2 receptors, by the displacement of aminoiodoketaneserine in rat frontal cortex homogenates, […]

5-HT3 receptors = target: T5, 5-HT3 receptors (Rattus norvegicus, UniProt P35563); assay: Displacement of 3H-zacopride at 5-HT3 receptors; type: binding; conditions: 0.3-0.4 nM 3H-zacopride, rat area postrema homogenates, pH 7.4, 25° C., 30 minutes
T5 construct: rat area postrema homogenates; from tissue; host or cells: rat area postrema
T5 sequence (P35563 24-483): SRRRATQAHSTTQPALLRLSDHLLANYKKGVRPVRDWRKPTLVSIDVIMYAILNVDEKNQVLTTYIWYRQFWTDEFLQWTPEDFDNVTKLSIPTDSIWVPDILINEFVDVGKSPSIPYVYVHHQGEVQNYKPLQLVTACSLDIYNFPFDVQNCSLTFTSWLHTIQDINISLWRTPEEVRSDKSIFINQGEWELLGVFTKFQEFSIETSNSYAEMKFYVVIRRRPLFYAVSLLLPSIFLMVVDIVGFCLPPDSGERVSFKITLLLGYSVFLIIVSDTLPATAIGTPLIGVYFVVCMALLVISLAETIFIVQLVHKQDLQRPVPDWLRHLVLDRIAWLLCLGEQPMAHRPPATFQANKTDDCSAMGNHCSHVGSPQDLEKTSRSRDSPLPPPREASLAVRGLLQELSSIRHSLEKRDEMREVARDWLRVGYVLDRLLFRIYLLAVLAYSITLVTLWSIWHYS
Description: A-1: Study of the binding of the compounds of the invention to 5-HT3 serotoninergic receptors
The binding of the compounds of the invention to 5-HT3 receptors was determined for each compound by measuring the displacement of ^3 H-zacopride (specific ligand for 5-HT3 receptors) in rat area postrema homogenates.
Aliquot amounts (50-100 μl) of a membrane suspension (2.5-5.0 mg of protein/cm^3) are incubated for 30 minutes at 25° C. in a Tris-HCl buffer, 25 mM, pH 7,4, in the presence of 0.3-0.4 nM 3^H -zacopride (83 ci/mmol) (total volume: 0.5 cm^3). The incubation is terminated by filtering the samples through Whatman GF/B filters which are then washed and dried. The radioactivity retained on the filters is finally calculated by spectrometry in liquid medium (Aquasol). The non-specific binding is evaluated under the same conditions using samples containing in addition 1 μM of ondansetron (5-HT3 antagonist). The displacement curves obtained by adding increasing concentrations of a test compound to the incubation medium are analysed to determine the affinity of the test compounds for 5-HT3 receptors.

5-HT1 receptors = assay: Displacement of 5-OH tryptamine at 5-HT1 receptors; type: binding; conditions: pig frontal cortex and striatum
Description: as §1, §2
for 5-HT1 receptors, by the displacement of 5-OH tryptamine in pig frontal cortex and striatum, […]

serotonin reuptake site = target: T6, serotonin reuptake site (Rattus norvegicus, UniProt P31652); assay: Displacement of 3H-paroxetine at the serotonin reuptake site; type: binding; conditions: rat brain without cerebellum, read-out: IC50, serotonin reuptake sites
T6 construct: rat brain from which the cerebellum has been removed; from tissue; host or cells: rat brain without cerebellum
T6 sequence (P31652 whole entry): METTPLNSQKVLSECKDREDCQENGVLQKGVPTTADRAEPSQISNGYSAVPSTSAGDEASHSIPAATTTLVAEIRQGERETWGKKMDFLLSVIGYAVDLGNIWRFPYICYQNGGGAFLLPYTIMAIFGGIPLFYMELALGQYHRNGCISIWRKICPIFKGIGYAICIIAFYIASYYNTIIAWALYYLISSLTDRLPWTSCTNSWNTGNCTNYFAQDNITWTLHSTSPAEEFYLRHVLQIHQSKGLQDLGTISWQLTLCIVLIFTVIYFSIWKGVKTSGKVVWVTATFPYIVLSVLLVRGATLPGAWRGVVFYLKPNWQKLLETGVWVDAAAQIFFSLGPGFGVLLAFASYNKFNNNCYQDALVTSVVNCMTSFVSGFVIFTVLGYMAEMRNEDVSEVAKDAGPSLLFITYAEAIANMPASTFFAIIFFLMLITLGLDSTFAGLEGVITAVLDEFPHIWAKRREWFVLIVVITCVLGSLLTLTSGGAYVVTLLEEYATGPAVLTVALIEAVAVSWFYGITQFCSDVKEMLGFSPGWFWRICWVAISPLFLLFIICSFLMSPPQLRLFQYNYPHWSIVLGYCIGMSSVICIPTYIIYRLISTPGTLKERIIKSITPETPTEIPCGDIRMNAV
Description: as §1, §2
for the serotonin reuptake site, by the displacement of ^3 H-paroxetinein rat brain from which the cerebellum has been removed, […]

5-HT1D receptors = assay: Displacement of 5-OH-tryptamine at 5-HT1D receptors; type: binding; conditions: rat cortex, striatum and globus pallidus homogenates
Description: as §1, §2
for 5-HT1D receptors, by the displacement of 5-OH-tryptamine in rat cortex, striatum and globus pallidus homogenates, […]

mouse = assay: Antidepressant activity: forced swimming test on the mouse; type: in vivo; conditions: i.p. route, last 4 of 6 minutes
Description: The antidepressant effects of the compounds of the invention were studied in accordance with the forced swimming test on the mouse. (Behavioural despair in mice: a primary screening test for antidepressants, Porsolt R. D. et al, Arch. Int. Pharmacodyn., (1977), 229, pp. 327-336).
The animals are placed for 6 minutes in a cylinder containing water from which they cannot escape. The period of immobility of the animals is measured for the last 4 minutes of the test. The test compounds are administered in a single dose before the test (imipramine being used as the reference compound).

| SMILES | IC50 (5-HT1A receptors) [µM] | IC50 (5-HT1B receptors) [µM] | IC50 (5-HT2C receptors) [µM] | IC50 (5-HT2 receptors) [µM] | IC50 (5-HT3 receptors) [µM] | IC50 (5-HT1 receptors) [µM] | IC50 (serotonin reuptake site) [µM] | IC50 (5-HT1D receptors) [µM] | Period of immobility expressed as a percentage by comparison with the control group (mouse; 32 mg/kg, **p < 0.01) [%] | Period of immobility expressed as a percentage by comparison with the control group (mouse; 64 mg/kg, ***p < 0.001) [%] |
| --- | --- | --- | --- | --- | --- | --- | --- | --- | --- | --- |
| CN1CCCC1CON=C1c2sccc2-n2cccc21 (racemic) [Example 13] | > 100 | 31 | 1 | 14 | 0.002 | 16 | 0.6 | 11 | – | – |
| Cc1csc2c1-n1cccc1/C2=N/OCCN(C)C [Example 3, (Z)-8-{[2-(N,N-Dimethylamino)ethoxy]imino}-3-methylthieno[2,3-d]pyrrolo-[1,2-a]pyrrole] | 5.8 | 2.7 | 2.1 | 3.1 | 0.00011 | 2.2 | 0.12 | 0.48 | -39 | -86 |
| CN(C)CCON=C1c2sccc2-n2cccc21 [Example 4] | 0.48 | 0.61 | 0.82 | 5 | – | 0.55 | 0.89 | 0.41 | – | – |
| Cc1csc2c1-n1cccc1/C2=N/OCCCN(C)C [Example 14] | 22 | 32 | 18 | 42 | – | 11 | 1.1 | 7 | – | – |
| CCN(CC)CCON=C1c2scc(C)c2-n2cccc21 [Example 15] | 21 | 6.4 | 0.84 | 13 | 0.005 | 11 | 0.13 | 4 | – | – |
| Cc1csc2c1-n1cccc1C2=NOCCN1CCCC1 [Example 17] | 1.6 | 3.6 | 0.71 | 3.7 | 0.002 | 3 | 0.3 | 3.2 | – | – |
| Cc1csc2c1-n1cccc1C2=NOCCN1CCCCC1 [Example 18] | 5.7 | 14 | 1.2 | 5.2 | 0.004 | 5.1 | 0.26 | 7.5 | – | – |
| Cc1csc2c1-n1cccc1/C2=N/OCC(C)CN(C)C (stereo not drawn) [Example 23] | 52 | 24 | 2 | 14 | 0.0054 | 9.6 | 5 | 11 | – | – |
| Cc1csc2c1-n1cccc1C2=NOC(CCN(C)C)c1ccccc1 (stereo not drawn) [Example 39, 3-Methyl-8-{[3-(N,N-dimethylamino)-1-phenylprop-1-yloxy]imino}thieno-[2,3-d]pyrrolo[1,2-a]pyrrole] | 11 | > 100 | 0.061 | 2.2 | 0.2 | 10 | 0.072 | 6.7 | -53 | – |
| Cc1csc2c1-n1cccc1/C2=N/OCCN [Example 40, (Z)-3-Methyl-8-[(2-amino-ethoxy)imino]thieno[2,3-d]pyrrolo[1,2-a]pyrrole] | 3.1 | 0.92 | 0.18 | 15 | – | 0.9 | 0.58 | 2.7 | – | – |
| Cc1csc2c1-n1cccc1/C2=N/OCCNCc1ccccc1 [Example 41, (Z)-3-Methyl-8-{[2-(N-benzylamino)ethoxy]imino}thieno[2,3-d]pyrrolo[1,2-a]-pyrrole] | 9.2 | 4.4 | 0.413 | 4.1 | – | 2.7 | 0.11 | 11 | – | – |
| CN(C)CCON=C1c2cc(Cl)ccc2-n2cccc21 [Example 49, 7-Chloro-9-{[2-(N,N-dimethylamino)ethoxy]imino}pyrrolo[1,2-a]indole] | 21 | 1.4 | 11 | 7.6 | 0.086 | 2.4 | 12 | 3.1 | – | – |
| Cc1ccc2c(c1)C(=NOCC(C)N(C)C)c1cccn1-2 (stereo not drawn) [Example 52] | 3.3 | 3.8 | 2.3 | 8.4 | 0.044 | 2 | 13 | 0.81 | – | – |
| Cc1ccc2c(c1)C(=NOCCC1CCCN1C)c1cccn1-2 (stereo not drawn) [Example 53] | 14 | 35 | 6 | 22 | 0.037 | 8.3 | 24 | 5.5 | – | – |
| CN(C)CCON=C1c2ccccc2-n2cccc21 [Example 54] | 1.1 | 1.1 | 1.4 | 14 | – | 0.14 | 0.93 | 0.69 | – | – |
| CC(CON=C1c2ccccc2-n2cccc21)N(C)C (stereo not drawn) [Example 55] | 3.8 | 4.4 | 4.1 | 12 | 0.0053 | 2.8 | 0.32 | 1.4 | – | – |
